Test results taken from patent publication US20110124701A1, “USE OF HDAC INHIBITORS FOR THE TREATMENT OF LYMPHOMAS” (NOVARTIS AG, priority 2006, published 2011).

Experiments:
[1] = system: HH CTCL mouse tumor xenografts; test: HH CTCL tumor xenograft in mice; type: in vivo; settings: 2 weeks
Experimental: Additionally, Compound III (LBH589) induced the regression of the HH CTCL mouse tumor xenografts in vivo. Mice were implanted with the HH CTCL cell lines and after tumors have grown to 150 mm^3, the mice were separated into four groups each containing eight mice. The groups of mice were dosed intravenously with vehicle, 5 mg/kg, 10 mg/kg, or 15 mg/kg daily.

MJ CTCL cell line = test: Monolayer growth inhibition assay (MTT/MTS), MJ; type: cell-based, human
Experimental: (§1) Cell lines derived from human CTCL (mycosis fungoides), HUT78, HUT102, HH and MJ were treated with Compound III (LBH589) to assess their sensitivity to the drug. Cells were generally maintained in artificial media, such as Dubelco Modified Eagle Medium (DMEM) or RPMI and supplemented with various levels up to 15% fetal bovine serum. The antibiotics penicillin 100 units/mL) and streptomycin (100 μg/mL) were added to prevent bacterial contamination and maintained at 37° C. and 5% CO2 environment in a sterile incubator.
(§2) The MTT is a colorimetric assay to determine the cell proliferation rate. The yellow tetrazolium MTT (3-(4,5-dimethylthiazolyl-2)-2,5-diphenyltetrazolium bromide) is reduced by metabolically active cells, in part by the action of dehydrogenase enzymes, to generate reducing equivalents, such as NADH and NADPH. The resulting intracellular purple formazan can be solubilized and quantified by spectrophotometric means. The signals produced is directly proportional to the cell numbers. Describing the MTT assay in detail, experiments were done using 6-point or 9-point drug titrations in multi-well tissue culture dishes, with outer rows left empty. Cells were suspended in complete media at densities of between 10^3 and 10^4 cell/mL, respectively, and added per well. The appropriate medium (200 μL) was then added. Twenty-four hours later, 10 μL of MTS solution, were added to one plates to determine the activity at the time of compound addition (T0). This plate was incubated at 37° C. for 4 hours and the optical density was measured on a Molecular Devices Thermomax at 490 nm using the Softmax program. The T0 plate served as a reference for initial activity at the beginning of the experiment.
(§3) Compound addition began 24 hours after seeding, the same time as the T0 determination. […] Each of the six dilutions were added in triplicate and complete medium was added to the empty outer rows without cells. The compounds were added to the plates singly or in combination with Compound III (LBH589). The plates were incubated at 37° C. for 72 hours from seeding. The MTS solution was added (as for the T0 plate) and read four hours later. In order to analyze the data, the average value of media alone (background) was subtracted from each experimental well and the triplicate values were averaged for each compound dilution. The following formulas were used to calculate percent growth.
(§4) If X>T0, % Growth=100×((X−T0)/(GC−T0))
(§5) If X<T0, % Growth=100×(X−T0)/T0)
(§6) T0=average value of T0 minus background GC=average value of untreated cells (in triplicate) minus background X=average value of compound treated cells (in triplicate) minus background […]

advanced-stage CTCL = test: Phase I study in patients with advanced-stage CTCL; type: in vivo, human
Experimental: Adult patients with histologically-confirmed, advanced solid tumors or non-Hodgkin's lymphoma including CTCL whose disease has progressed despite standard therapy or for whom no standard therapy exists, will be enrolled onto arms 1-3.
Patients with advanced-stage CTCL were entered into a Phase I study. All patients had progressed following prior systemic therapy. Patients were entered into the DLT, […], dose level 30 mg M,W,F cohort (n=1) or the subsequent MTD, maximum tolerated dose, dose level 20 mg M,W,F weekly (n=8). Compound (III) was continued until disease progression or unacceptable toxicity. The first three patients had 3 mm punch biopsies from CTCL-involved skin lesions performed at 0, 4, 8 and 24 hours after administration, which were subjected to gene expression profiling. Microarray analysis was performed using the Affymetrix U133 plus 2.0 GeneChip that has 47,000 probesets and interrogates 38,500 genes.

HuT102 CTCL cell line = test: Monolayer growth inhibition assay (MTT/MTS), HuT102; type: cell-based, human
Experimental: as §1, §2, §3, §4, §5, §6

HH CTCL cell line = test: Monolayer growth inhibition assay (MTT/MTS), HH; type: cell-based
Experimental: (§7) The antibiotics penicillin 100 units/mL) and streptomycin (100 μg/mL) were added to prevent bacterial contamination and maintained at 37° C. and 5% CO2 environment in a sterile incubator.
as §2, with “This plate was incubated at 37° C. for 4 hours and the optical density was measured on a Molecular Devices Thermomax at 490 nm using the Softmax program.” left out
as §3, with “The compounds were added to the plates singly or in combination with Compound III (LBH589).” left out
as §4, §5, §6

HuT78 CTCL cell line = test: Monolayer growth inhibition assay (MTT/MTS), HuT78; type: cell-based
Experimental: as §7
as §2, with “This plate was incubated at 37° C. for 4 hours and the optical density was measured on a Molecular Devices Thermomax at 490 nm using the Softmax program.” left out
as §3, with “The compounds were added to the plates singly or in combination with Compound III (LBH589).” left out
as §4, §5, §6

[2] = of 9 CTCL patients evaluable for response, 20 or 30 mg M,W,F

Which results are given for Cc1[nH]c2ccccc2c1CCNCc1ccc(/C=C/C(=O)NO)cc1 [Compound III, N-hydroxy-3-[4-[[[2-(2-methyl-1H-indol-3-yl)-ethyl]-amino]methyl]phenyl]-2E-2-propenamide]?
effect on tumor growth ([1]; 5 mg/kg daily iv): tumor growth inhibition; effect on tumor growth ([1]; 10 mg/kg daily iv): almost complete tumor regression; effect on tumor growth ([1]; 15 mg/kg daily iv): almost complete tumor regression; IC50 (MJ CTCL cell line; Homo sapiens, 72 h, read-out: IC50 (concentration required to inhibit cell growth by 50%)): 0.3 nM; sensitivity (IC50) in words (MJ CTCL cell line; MJ cells): extreme subnanomolar sensitivity; LD50 (concentration required to reduce cell number to 50% of the original inoculum) (MJ CTCL cell line; MJ cells, 72 hours): >10 µM; sensitivity to induced cell death in words (MJ CTCL cell line; MJ cells, HTLV infection): insensitive; MTD, maximum tolerated dose, dose level (advanced-stage CTCL; M,W,F weekly, CTCL patients): 20 mg; time to progression of a responding patient with CR (advanced-stage CTCL; discontinued after 10 doses due to Grade III diarrhea): 8 m; DLT dose level (advanced-stage CTCL; human, in vivo): 30 mg; patients achieving stable disease (SD) with ongoing improvement (advanced-stage CTCL; [2]): 1 patients; patients attaining a complete response (CR) (advanced-stage CTCL; [2]): 2 patients; patients attaining a partial response (PR) (advanced-stage CTCL; [2]): 2 patients; patients progressed on treatment (PD) (advanced-stage CTCL; [2]): 4 patients; sensitivity (IC50) in words (HuT102 CTCL cell line; HUT102 cells): extreme subnanomolar sensitivity; sensitivity to induced cell death in words (HuT102 CTCL cell line; HUT102 cells, HTLV infection): insensitive; IC50 (HuT102 CTCL cell line; Homo sapiens, HuT-102, 72 h, read-out: IC50 (concentration required to inhibit cell growth by 50%)): 0.4 nM; LD50 (concentration required to reduce cell number to 50% of the original inoculum) (HuT102 CTCL cell line; HuT102 cells, 72 hours): >10 µM; sensitivity (IC50) in words (HH CTCL cell line; HH cells): extreme subnanomolar sensitivity; LD50 (concentration required to reduce cell number to 50% of the original inoculum) (HH CTCL cell line; HH cells, 72 hours): 0.0025 µM; IC50 (HH CTCL cell line; Homo sapiens, HH, 72 h, read-out: IC50 (concentration required to inhibit cell growth by 50%)): 0.7 nM; sensitivity (IC50) in words (HuT78 CTCL cell line; HUT78 cells): extreme subnanomolar sensitivity; IC50 (HuT78 CTCL cell line; Homo sapiens, HuT78, 72 h, read-out: IC50 (concentration required to inhibit cell growth by 50%)): 0.2 nM; LD50 (concentration required to reduce cell number to 50% of the original inoculum) (HuT78 CTCL cell line; HuT78 cells, 72 hours): 0.003 µM
